1 molecule from US7541379B2, “Di(amido-substituted)heteroarene compounds as osteoblastogenesis agents” (The University of Hong Kong, priority 2005, dated 2009) can be followed below.

One data set concerns ALP. Nature of the data set: ALP enzyme activity assay (PNPP hydrolysis) in MC3T3-E1 (clone 4) cells. The format is cell-based. The method, then:
Cell culture. […]
ALP assay. ALP activity was measured as p-nitrophenol produced from the hydrolysis of p-nitrophenyl phosphate (PNPP). […] The reaction was stopped by the addition of NaOH (final concentration, 0.5 M) and the absorbance was measured at 410 nm. Enzyme activity was normalized to the protein content determined using Protein Assay Kit (Bio-Rad). […]
MC3T3-E1 (clone 4) cells were cultured for 4, 10, and 14 days with the presence of VCM supplemented with different concentrations (range from 0.01 to 1 μg/mL) of di(amido-substituted)heteroarene compounds. […] ALP activity was measured as p-nitrophenol produced from the hydrolysis of p-nitrophenyl phosphate (PNPP). […] The reaction was stopped by the addition of NaOH (final concentration, 0.5 M) and the absorbance measured at 410 nm. Enzyme activity was normalized to the protein content determined using Protein Assay Kit (Bio-Rad). […]

The subject of the next data set is ALP mRNA. Nature of the data set: ALP mRNA expression by real-time quantitative RT-PCR in MC3T3-E1 (clone 4) cells. Type of data set: cell-based. As to conditions: 4 days, osteogenic medium. The method, then:
(§1) Cell culture. MC3T3-E1 (clone 4) cells ([…], Manassas, Va., U.S.A.) were maintained in complete growth medium, i.e., alpha-MEM supplemented with 100 U/mL penicillin, 100 μg/mL streptomycin, and 10% heat-inactivated fetal bovine serum (JRH Biosciences, Lenexa, Kans., U.S.A. Ascorbic acid (AsA) and β-glycerophosphate (β-GP) were purchased from Sigma-Aldrich Co. (St. Louis, […]., U.S.A.). For the screening of osteoblastogenesis-inducing compounds, cells were plated in 24-well plates in complete growth medium at 5×10^4 cells/cm^2 and after overnight incubation, potential osteoblastogenesis modulating agents were added at 3 different concentrations, each with 10 fold difference. […]
(§2) Real-time quantitative reverse transcription (RT) PCR. […] ALP and osterix mRNA expression was determined by RT followed by real-time TaqMan PCR analysis. […] All PCR reactions were performed in triplicate and data obtained were analyzed using the comparative CT method (Applied Biosystems) with ALP/osterix signals normalized to 18S signal for each sample.
MC3T3-E1 (clone 4) cells were cultured for 4 days, and total RNA was extracted. […] Expression level of osterix expression in MC3T3-E1 (clone 4) cells was determined using Real-Time TaqMan polymerase chain reaction (PCR). […]

For another data set, the system named is osterix mRNA. As to the kind of experiment: Osterix mRNA expression by real-time quantitative RT-PCR in MC3T3-E1 (clone 4) cells. As to conditions: 1 μg/mL (high concentrations), 4 days, osteogenic medium. Type of data set: cell-based. The method, then:
as §1, §2
MC3T3-E1 (clone 4) cells were cultured for 4 days, and total RNA was extracted. […] Expression level of osterix expression in MC3T3-E1 (clone 4) cells was determined using Real-Time TaqMan PCR. […]

Data set [1] concerns MC3T3-E1 (clone 4) cells. As to the kind of experiment: MTT-based cell proliferation assay. The conditions noted are these: 0.01 to 1 μg/mL, 2 days, osteogenic medium. As for the experimental part: Cell proliferation assay. Cell proliferation studies were performed as previously described using MTT-based (GE Healthcare, Piscataway, N.J., USA) cell proliferation assays (Cheung et a/, FEBS Lett (2006), 580, 121). After treatment with potential osteoblastogenesis modulating agents for 2 days, MTT was added at a final concentration of 0.5 mg/ml for 3 h, cells were solubilized with isopropanol containing 0.1% sodium dodecyl sulfate and 0.04 N hydrochloric acid, and the absorbance measured at 570 nm. All experiments were repeated three times.
Cell proliferation studies were performed as previously described using MTT (GE Healthcare, Piscataway, N.J., USA) assays (Cheung et al, FEBS Lett (2006), 580, 121). After treatment with the candidate compounds (concentrations 0.01 to 1 μg/mL) for 2 days, MTT was added at a final concentration of 0.5 mg/ml for 3 h, cells were solubilized with isopropanol containing 0.1% sodium dodecyl sulfate and 0.04 N hydrochloric acid, and the absorbance measured at 570 nm. All experiments were repeated three times.

Data set [2] relates to MC3T3-E1 (clone 4) cells. Nature of the data set: Bone nodule formation and mineralization (Alizarin red stain). The format is cell-based. As to conditions: 0.01 to 1 μg/mL, 26 days, osteogenic conditions. The method, then:
Cells were washed twice with ice-cold PBS and then fixed in ice-cold fixative (10% formalin in PBS) for 15 min. After washed with deionized water, fixed cells were stained with 1% alizarin S solution, pH 4.2 for 15 min and then were washed thoroughly with deionized water. Mineralized matrix was then detected.

A short description of data set [3]: Cytotoxicity by standard MTT assay on Vero cells. The conditions noted are these: African green monkey, MTT assay, read-out: TC50 (the source's name). The format is cell-based, African green monkey. As for the experimental part: (§3) Cytotoxicity assay. Vero cells, an African green monkey cell line were purchased from American Type Culture Collection (ATCC) and Cell Proliferation Kit I MTT (3-[4,5-dimethylth-iazol-2-yl]-2,5-diphenyltetrazolium bromide) assay was purchased from Roche. Normal human lung fibroblast cell line (CCD-19Lu) was obtained commercially from ATCC. CCD-19Lu cells were maintained in a minimum essential medium with Earle's balanced salts (MEM). The media were supplemented with L-glutamine (2 mM), fetal bovine serum (10%), penicillin (100 U/mL) and streptomycin (100 μg/mL). Cultures were incubated at 37° C. in a 5% CO2/95% air humidified atmosphere. Cell culture flasks and 96-well microtitre plates were purchased from Nalge Nunc Int. Culture medium, other medium constituents and phosphate buffered saline (PBS) were from Gibco BRL.
(§4) The cytotoxicity of selected compounds was determined by MTT according to manufacturer's (Roche) instructions. The experiment (cell viability using MTT as an indicator) was carried out in triplicates. The TC50 (on Vero cells, an African green monkey cell line) is ca. 50 μM, it is concluded that these compounds may be useful for osteoblastogenesis development.
On the technique in general: Formazan colour is commonly taken as a measure of viable cells.

Data set [4] has as its system African green monkey Vero cells. Nature of the data set: Cytotoxicity by standard MTT assay on Vero cells. Type of data set: cell-based. As for the experimental part: as §3, §4
A further data set has as its system CCD-19L cells. As to the kind of experiment: Cytotoxicity by MTT assay on CCD-19L cells (vs vehicle control). The format is cell-based, human. As to conditions: 72 h.
Description: As used herein, the term “CCD-19L cells” described herein refers to normal human lung fibroblast cell line.
as §3
Assays on cytotoxic effects were conducted in 96-well flat-bottomed microtitre plates. […] The formation of formazan was measured with a microtitre plate reader at 550 nm and the percentages of cell survival were determined. The cytotoxicity was evaluated based on the percentage cell survival in a dose dependent manner relative to the negative control (FIG. 8).

Entries after “also recorded” stand apart in the source; their conditions may differ.

On to `Cc1ccc(S(=O)(=O)Nc2cn(C)cc2NS(=O)(=O)c2ccc(C)cc2)cc1` [compound 1], for which the “effect on ALP enzyme activity” value in the data set on ALP (0.01 to 1 μg/mL, osteogenic medium, 4, 10 and 14 days) was “significantly enhanced ALP enzyme activity in a dose-dependent manner”. Besides, in the data set on ALP (14 days of treatment, 0.1 μg/mL, osteogenic medium), the “ALP activity up-regulated compared to the control” value amounted to 2 fold. Also, the “ALP mRNA expression up-regulated” value with ALP mRNA (0.1 μg/mL) is 16%. Further, in the data set on ALP mRNA (0.1 and 1 μg/mL), the “effect on ALP mRNA expression” value is listed as “enhanced ALP mRNA expression”. The “effect on osterix mRNA expression” value with osterix mRNA is “effectively up-regulated mRNA expression of osterix; also recorded: enhanced osterix mRNA expression”. Besides, the “effect on cell proliferation (MTT)” value in the data set on MC3T3-E1 (clone 4) cells [1] is reported as “did not alter”. For the same molecule, the “effect on mineralization of bone nodules” value with MC3T3-E1 (clone 4) cells [2] is given as “potentiated mineralization of bone nodules”. Moreover, the CC50 in data set [3] is 57 µM; in data set [4] (MTT assay, read-out: TC50 (the source's name)), no more than 57 µM. Further, the “cytotoxicity on Vero cells” value in data set [4] (standard MTT assay) is “low cytotoxicity”. Further, the “cytotoxicity on CCD-19L cells” value in the data set on CCD-19L cells is “low cytotoxicity”.
